Literature values, collected in PubChem BioAssay AID1259409 (Chemical Carcinogenesis Research Information System (CCRIS), 2018).

Tested on: rodent chemically induced tumor inhibition, incidence and multiplicity
Experiment: CCRIS tumor inhibitor studies
Conditions: Promoter: NONE USED

O=[Se]=O
tumour outcome (control, treated, inhibition, significance) (Carcinogen: N-2-FLUORENYLACETMIDE, 53-96-3, Dose [Inhibitor]: 0.1 PPM IN DIET DAILY STARTING SIMULTANEOUSLY WITH CARCINOGEN TREATMENT AT AGE 35 D AND CONTINUING FOR DURATION OF STUDY, Route [Inhibitor]: ORAL, Species: RAT, Strain/Sex: OSU-BROWN/FEMALE, Target Tissue: Type of Lesion: LIVER: HEPATOMA, Dose [Carcinogen]: 150 PPM IN DIET DAILY FOR DURATION OF STUDY): 85%, 100%, -18%, not calculated
tumour outcome (control, treated, inhibition, significance) (Carcinogen: N-2-FLUORENYLACETMIDE, 53-96-3, Dose [Inhibitor]: 0.1 PPM IN DIET DAILY STARTING SIMULTANEOUSLY WITH CARCINOGEN TREATMENT AT AGE 35 D AND CONTINUING FOR DURATION OF STUDY, Route [Inhibitor]: ORAL, Species: RAT, Strain/Sex: OSU-BROWN/FEMALE, Target Tissue: Type of Lesion: MAMMARY GLAND: ADENOCARCINOMA, Dose [Carcinogen]: 150 PPM IN DIET DAILY FOR DURATION OF STUDY): 94%, 100%, -6%, not calculated
tumour outcome (control, treated, inhibition, significance) (Carcinogen: N-2-FLUORENYLACETMIDE, 53-96-3, Dose [Inhibitor]: 0.5 PPM IN DIET DAILY STARTING SIMULTANEOUSLY WITH CARCINOGEN TREATMENT AT AGE 35 D AND CONTINUING FOR DURATION OF STUDY, Route [Inhibitor]: ORAL, Species: RAT, Strain/Sex: OSU-BROWN/FEMALE, Target Tissue: Type of Lesion: LIVER: HEPATOMA, Dose [Carcinogen]: 150 PPM IN DIET DAILY FOR DURATION OF STUDY): 85%, 80%, 6%, not calculated
tumour outcome (control, treated, inhibition, significance) (Carcinogen: N-2-FLUORENYLACETMIDE, 53-96-3, Dose [Inhibitor]: 0.5 PPM IN DIET DAILY STARTING SIMULTANEOUSLY WITH CARCINOGEN TREATMENT AT AGE 35 D AND CONTINUING FOR DURATION OF STUDY, Route [Inhibitor]: ORAL, Species: RAT, Strain/Sex: OSU-BROWN/FEMALE, Target Tissue: Type of Lesion: MAMMARY GLAND: ADENOCARCINOMA, Dose [Carcinogen]: 150 PPM IN DIET DAILY FOR DURATION OF STUDY): 94%, 85%, 10%, not calculated
tumour outcome (control, treated, inhibition, significance) (Carcinogen: N-2-FLUORENYLACETMIDE, 53-96-3, Dose [Inhibitor]: 2.5 PPM IN DIET DAILY STARTING SIMULTANEOUSLY WITH CARCINOGEN TREATMENT AT AGE 35 D AND CONTINUING FOR DURATION OF STUDY, Route [Inhibitor]: ORAL, Species: RAT, Strain/Sex: OSU-BROWN/FEMALE, Target Tissue: Type of Lesion: LIVER: HEPATOMA, Dose [Carcinogen]: 150 PPM IN DIET DAILY FOR DURATION OF STUDY): 85%, 50%, 41%, not calculated
tumour outcome (control, treated, inhibition, significance) (Carcinogen: N-2-FLUORENYLACETMIDE, 53-96-3, Dose [Inhibitor]: 2.5 PPM IN DIET DAILY STARTING SIMULTANEOUSLY WITH CARCINOGEN TREATMENT AT AGE 35 D AND CONTINUING FOR DURATION OF STUDY, Route [Inhibitor]: ORAL, Species: RAT, Strain/Sex: OSU-BROWN/FEMALE, Target Tissue: Type of Lesion: MAMMARY GLAND: ADENOCARCINOMA, Dose [Carcinogen]: 150 PPM IN DIET DAILY FOR DURATION OF STUDY): 94%, 68%, 28%, not calculated
tumour outcome (control, treated, inhibition, significance) (Carcinogen: NONE USED, Dose [Inhibitor]: 0.1 PPM IN DRINKING WATER DAILY FOR 22 MO STARTING AT AGE 2 MO AND CONTINUING FOR DURATION OF STUDY (STUDY DURATION: 22, Route [Inhibitor]: ORAL, Species: MOUSE, Strain/Sex: C3H/FEMALE, Target Tissue: Type of Lesion: MAMMARY GLAND: ADENOCARCINOMA): 42%, 25%, 40%, not calculated
tumour outcome (control, treated, inhibition, significance) (Carcinogen: NONE USED, Dose [Inhibitor]: 0.5 PPM IN DRINKING WATER DAILY FOR 22 MO STARTING AT AGE 2 MO AND CONTINUING FOR DURATION OF STUDY (STUDY DURATION: 22, Route [Inhibitor]: ORAL, Species: MOUSE, Strain/Sex: C3H/FEMALE, Target Tissue: Type of Lesion: MAMMARY GLAND: ADENOCARCINOMA): 42%, 19%, 55%, not calculated
tumour outcome (control, treated, inhibition, significance) (Carcinogen: NONE USED, Dose [Inhibitor]: 1 PPM IN DRINKING WATER DAILY FOR 22 MO STARTING AT AGE 2 MO AND CONTINUING FOR DURATION OF STUDY (STUDY DURATION: 22 MO, Route [Inhibitor]: ORAL, Species: MOUSE, Strain/Sex: C3H/FEMALE, Target Tissue: Type of Lesion: MAMMARY GLAND: ADENOCARCINOMA): 42%, 10%, 76%, not calculated
tumour outcome (control, treated, inhibition, significance) (Carcinogen: NONE USED, Dose [Inhibitor]: 2 PPM IN DRINKING WATER DAILY FOR DURATION OF STUDY (STUDY DURATION: 16 MO), Route [Inhibitor]: ORAL, Species: MOUSE, Strain/Sex: C3H/FEMALE, Target Tissue: Type of Lesion: MAMMARY GLAND: ADENOCARCINOMA): 82%, 10%, 88%, not calculated
tumour outcome (control, treated, inhibition, significance) (Carcinogen: NONE USED, Dose [Inhibitor]: 5 PPM IN DRINKING WATER DAILY STARTING AT AGE 1 MO AND CONTINUING FOR LIFE (STUDY DURATION: LIFE), Route [Inhibitor]: ORAL, Species: MOUSE, Strain/Sex: C3H/FEMALE, Target Tissue: Type of Lesion: MAMMARY GLAND: TUMOR): 82%, 36%, 56%, p<0.005
tumour outcome (control, treated, inhibition, significance) (Carcinogen: NONE USED, Dose [Inhibitor]: 15 PPM IN DRINKING WATER DAILY STARTING AT AGE 1 MO AND CONTINUING FOR LIFE (STUDY DURATION: LIFE), Route [Inhibitor]: ORAL, Species: MOUSE, Strain/Sex: C3H/FEMALE, Target Tissue: Type of Lesion: MAMMARY GLAND: TUMOR): 82%, 33%, 60%, p<0.005

[Cl][Zn][Cl]
tumour outcome (control, treated, inhibition, significance) (Carcinogen: CISPLATIN, 15663-27-1, Dose [Inhibitor]: 0, 40 UMOL/KG/D 3 D/WK FOR 8 WK ADMINISTERED 24 HR PRIOR TO EACH CARCINOGEN DOSE (STUDY DURATION: 24 WK), Route [Inhibitor]: SUBCUTANEOUS, Species: MOUSE, Strain/Sex: STRAIN-A/FEMALE, Target Tissue: Type of Lesion: LUNG: TUMOR, Dose [Carcinogen]: 2 UMOL/KG/D 3 D/WK FOR 8 WK): 100%, 69%, 31%, p<0.05
tumour outcome (control, treated, inhibition, significance) (Carcinogen: MELPHALAN, 148-82-3, Dose [Inhibitor]: 0, 40 UMOL/KG/D 3 D/WK FOR 8 WK ADMINISTERED 24 HR PRIOR TO EACH CARCINOGEN DOSE (STUDY DURATION: 24 WK), Route [Inhibitor]: SUBCUTANEOUS, Species: MOUSE, Strain/Sex: STRAIN-A/FEMALE, Target Tissue: Type of Lesion: LUNG: TUMOR, Dose [Carcinogen]: 4 UMOL/KG/D 3 D/WK FOR 8 WK): 100%, 100%, 0%, not significant

C=CC(C)(O)CC/C=C(\C)CCC=C(C)C (stereo not given)
tumour outcome (control, treated, inhibition, significance) (Carcinogen: AZOXYMETHANE, 25843-45-2, Dose [Inhibitor]: 0, 5 MG/G IN DIET FOR 22 WK BEGINNING 3 D POST LAST CARCINOGEN DOSE (STUDY DURATION: 25 WK), Route [Inhibitor]: ORAL, Species: RAT, Strain/Sex: F344/MALE, Target Tissue: Type of Lesion: DUODENUM: ADENOCARCINOMA, Dose [Carcinogen]: 15 MG/KG BW 2/WK FOR 3 WK): 50%, 26%, 48%, not significant
